Data set [1] has as its system Zucker fa/fa rats. As to the kind of experiment: Effects of high-dose salicylates in Zucker fa/fa rats (GTT, ITT, serum lipids, ALT). The conditions noted are these: Zucker fa/fa rats, 120 mg/kg/day. The source says:
(§1) Ob/ob mice are leptin deficient.

The conditions of data set [2]: 120 mg/kg/day continuous subcutaneous infusion.
Text: as §1

For data set [3], the system named is Insulin receptor (IR). As to the kind of experiment: Insulin receptor tyrosine autophosphorylation in tissues from treated Zucker rats. The class given is in vivo, rat. Conditions: liver and muscle of treated Zucker rats vs untreated. The procedure: (§2) Tissues were isolated from treated animals and insulin signaling proteins were analyzed. […] A cascade consisting of insulin receptor (IR), insulin-receptor substrate (IRS) proteins, PI 3-kinase and 3-phosphoinositide-dependent protein kinase-1 (PDK1), is required for maintenance of metabolic homeostasis.

For data set [4], the system named is AKT kinase. In words: Insulin-stimulated AKT phosphorylation in tissues from treated Zucker rats. The format is in vivo, rat. The conditions noted are these: liver and muscle of treated Zucker rats vs untreated. The procedure: as §2
The subject of data set [5] is IRS-1. As to the kind of experiment: Electrophoretic mobility of IRS-1 from livers of treated animals. The class given is in vivo. Conditions: animal livers; suggests decrease in Ser/Thr phosphorylation. The source says:
In cultured cells, IRS proteins are especially prone to phosphorylation on serine and threonine residues, which opposes the effect of tyrosine phosphorylation by inhibiting signaling.

The test system of data set [6] is IRS-2. As to the kind of experiment: Tyrosine phosphorylation of IRS-2 in Fao hepatoma cells, TNF-α induced 'insulin resistance'. The class given is cell-based. Conditions: for Tyrosine-phosphorylation of IRS-2: Fao hepatoma cells; for Reversal of TNF-α induced 'insulin resistance': doses known to have potent biological effects, cells not restated.
Data set [7] relates to ob/ob mice. The conditions noted are these: ob/ob mice, 120 mg/kg/day.
Procedure: FIGS. 1A-H: In vivo effects of aspirin in Zucker fatty rats and ob/ob mice. (panels A-F) Twelve-week-old male Zucker rats (Harlan) and (panels G,H) eight-week-old ob/ob and ob/+ mice (Jackson Labs) were given free access to food and water. […] For glucose tolerance tests (GTT), glucose (2.0 g/kg) was administered by oral gavage (rats) or intraperitoneal injection (mice) after an overnight fast. (panels A,C) Blood glucose and (panels B,D) serum insulin levels were determined during oral glucose tolerance tests in (panels A,B) six Zucker fa/fa rats and (panels C,D) six fa/+ rats. For insulin tolerance tests (ITT) in (panel E) six Zucker fa/fa rats, insulin (2.0 U/kg) was injected intraperitoneally after an overnight fast. (panel F) Cholesterol (Chol), triglyceride (TG), long chain free fatty acid (FFA), and liver alanine aminotransferase (ALT) levels were measured in sera from fasting Zucker fa/fa rats. Glucose tolerance tests were conducted with (panel G) ten ob/ob mice and (panel H) ten ob/+ mice. Data are mean±SEM values; some SEM values are within the area of the symbols.
A determination of the effects of high-dose salicylates on obese rodents with severe insulin resistance was performed as follows. Twelve-week-old male Zucker fa/fa rats and eight-week-old male ob/ob mice were treated for 3-4 weeks with 120 mg/kg/day of aspirin or salicylate, administered by continuous subcutaneous infusion; this dose is roughly equivalent to 5-10 g/day in humans.
Data set [8] concerns the target T1, IKKβ (Homo sapiens, UniProt O14920).
T1 sequence (O14920 1-756): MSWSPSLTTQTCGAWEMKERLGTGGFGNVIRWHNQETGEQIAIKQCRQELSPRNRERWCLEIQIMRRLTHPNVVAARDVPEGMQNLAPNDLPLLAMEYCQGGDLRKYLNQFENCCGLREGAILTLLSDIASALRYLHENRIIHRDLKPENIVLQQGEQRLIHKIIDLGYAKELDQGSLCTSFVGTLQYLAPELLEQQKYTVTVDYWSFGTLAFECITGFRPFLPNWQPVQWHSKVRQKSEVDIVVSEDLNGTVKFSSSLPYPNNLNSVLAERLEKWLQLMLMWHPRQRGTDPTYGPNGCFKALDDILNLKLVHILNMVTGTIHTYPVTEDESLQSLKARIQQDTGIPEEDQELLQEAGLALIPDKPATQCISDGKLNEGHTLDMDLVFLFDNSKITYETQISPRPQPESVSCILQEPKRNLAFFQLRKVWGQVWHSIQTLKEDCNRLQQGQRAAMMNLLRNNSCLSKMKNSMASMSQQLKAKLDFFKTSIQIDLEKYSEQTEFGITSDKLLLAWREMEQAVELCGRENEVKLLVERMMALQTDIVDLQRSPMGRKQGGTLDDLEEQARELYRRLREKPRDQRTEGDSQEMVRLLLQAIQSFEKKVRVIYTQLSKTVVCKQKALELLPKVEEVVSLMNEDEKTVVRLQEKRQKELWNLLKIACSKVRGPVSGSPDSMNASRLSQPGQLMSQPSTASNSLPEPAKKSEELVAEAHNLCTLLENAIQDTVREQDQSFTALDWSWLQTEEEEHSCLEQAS
Conditions: Yin et al (1998); cited from earlier work.

In data set [9] the test system is IR β-subunit. As to the kind of experiment: Insulin-stimulated tyrosine phosphorylation of IR in 3T3-L1 adipocytes made 'insulin resistant'. The class given is cell-based. Conditions: 3T3-L1 adipocytes. The procedure:
(§3) Culture cells were used as follows to investigate the mechanisms relating to salicylate treatment to the in vivo reversal of insulin resistance. TNF-α treatment of 3T3-L1 adipocytes induced ‘insulin resistance’, as judged by significant decreases in insulin-stimulated tyrosine phosphorylation of IR β-subunit (42±11%) and IRS-1 (37±9%). TNF-α mediated ‘insulin resistance’ was reversed by pretreatment with high-dose (5 mM) aspirin. IR and IRS-1 phosphorylation levels were restored to 126±24% and 136±35%, respectively, compared to untreated controls; IR and IRS-1 protein levels were unchanged in TNF-α and aspirin-treated cells. TNF-α activates a cascade of adapters and kinases, including TRADD, RIP, TRAF2, and TAB1, which act upstream of JNK, p38 MAPK, and the IKK complex. Okadaic acid and calyculin A, two phosphatase inhibitors, also activate IKKβ (DiDonato et al. (1997) Nature 388:548; Harhaj & Sun (1997) J Biol Chem 272:5409), but without activating upstream elements in the TNF-α signaling cascade. Okadaic acid and calyculin A also induce ‘insulin resistance’ in isolated tissues and cultured cells (Robinson et al (1993) Am J Physiol 265:E36; Paz et al (1997) J. Biol Chem 272:29911). Therefore, it was determined whether aspirin would reverse ‘insulin resistance’ caused by these inhibitors. Marked reductions in insulin-stimulated IR (29±12%) and IRS-1 (16±2%) tyrosine-phosphorylation were prevented by incubating the cells with high-dose aspirin (109±15% and 93±25%, respectively).
(§4) Hyperglycemia- and hyperinsulinemia-induced insulin resistance in diabetic subjects can be mimicked in cell culture by incubation with high concentrations of glucose and insulin. Potential mechanisms include glucose-induced activation of PKC, which can activate IKK. […] Concurrent treatment with aspirin restored IR (107±23%) and IRS-1 (90±23%) tyrosine-phosphorylation to levels seen in cells incubated at 5.5 mM glucose. […] Protein levels were restored by concurrent treatment with aspirin. Serine phosphorylation of IκB leads to ubiquitination and proteosome-mediated degradation. IRS proteins may be degraded by a similar route and in both cases, downregulation was inhibited by aspirin.

Data set [10] concerns IRS-1. As to the kind of experiment: Insulin-stimulated tyrosine phosphorylation of IRS-1 in 3T3-L1 adipocytes made 'insulin resistant'. The format is cell-based. Conditions: 3T3-L1 adipocytes, TNF-α treatment alone. As for the experimental part:
as §3, §4

The subject of data set [11] is IR. In words: Insulin-stimulated IR activation in untransfected 293 cells. The class given is cell-based. The conditions noted are these: TNF-α treatment. The source says:
(§5) However, TNF-α is a potential mediator of acquired insulin resistance (Lang et al. (1992) Endocrinology 130:43; Feinstein et al. (1993) J Biol Chem 268:26055; Hotamisligil et al. (1993) Science 259:87; Hotamisligil et al. (1994) J Clin Invest 94:1543). TNF-α activates the IKK complex. TNF-α treatment of untransfected 293 cells reduced insulin-stimulated IR activation to 29±2% of untreated controls. Expression of kinase deficient, dominant inhibitory IKKα(K44A) or IKKβ(K44A) reversed TNF-α-inhibited IR activation. In fact, dominant-inhibitory IKKβ caused a 60% increase in insulin-stimulated IR tyrosine-phosphorylation over controls, whether or not cells had been treated with TNF-α. […] There is in vivo support for this, as well.

Data set [12] has as its system AKT. In words: AKT activation in 293 cells. The format is cell-based. The conditions noted are these: TNF-α treatment.
Text: as §5

The subject of data set [13] is IKKβ. The conditions noted are these: without activating upstream elements in the TNF-α signaling cascade; cited from earlier work.
For data set [14], the system named is isolated tissues and cultured cells. Conditions: cited from earlier work.

As for `O=C([O-])c1ccccc1O.[Na+]` [salicylate, sodium salicylate], in data set [1], the “Food intake, blood chemistry, or body weight” value was “Neither aspirin nor salicylate affected”. Further, in data set [2], the “Serum salicylate levels, mean” value stood at 0.81 ± 0.25 mM and the “Serum salicylate levels, range” value fell in the range of 0.3 to 1.3 mM. In addition, in data set [3], the “Insulin receptor (IR) tyrosine autophosphorylation” value is on record as “Significantly increased stimulation”. For the same molecule, in [4], the “Insulin-stimulated AKT phosphorylation” value is “increased”. The “Electrophoretic mobility of IRS-1” value in [5] was “increased”. Also, the “Tyrosine-phosphorylation of IRS-2” value in data set [6] (TNF-α plus drug) stood at 89±8%. The “Food intake, blood chemistry, or body weight” value in data set [7] is “Neither aspirin nor salicylate affected”. In addition, in data set [8], the “Inhibition of IKKβ, relative potency” value is recorded as “equipotent inhibitors”.

TNF-α: the “IR and IRS-1 protein levels” value in data set [9] (TNF-α and aspirin-treated cells) was “unchanged”. In addition, the “Insulin-stimulated tyrosine phosphorylation of IR β-subunit” value in data set [9] (TNF-α treatment alone) was 42±11%. In addition, in data set [10], the “Insulin-stimulated tyrosine phosphorylation of IRS-1” value was 37±9%. Further, the “Tyrosine-phosphorylation of IRS-2” value in data set [6] (TNF-α treatment alone) is 39±9%. Further, in [11], the “Insulin-stimulated IR activation, of untreated controls” value is listed as 29±2%. Further, the AKT activation in data set [12] stood at 18±15%.

Turning to `COc1ccc2cc([C@H](C)C(=O)O)ccc2c1` [naproxen], the “Reversal of TNF-α induced 'insulin resistance'” value (shortened to “Reversal”) in data set [6] was “Neither ibuprofen nor naproxen, two NSAID inhibitors of COX1 and COX2, reversed”.

As for `CS(=O)(=O)Nc1ccc([N+](=O)[O-])cc1OC1CCCCC1` [NS-398], the “Reversal” value in data set [6] is on record as “no effect”.

For `CC(C)Cc1ccc(C(C)C(=O)O)cc1` (stereo not shown) [ibuprofen], in [6], the “Reversal” value was “Neither ibuprofen nor naproxen, two NSAID inhibitors of COX1 and COX2, reversed”.

`COC[C@@H]([C@H](O)[C@H](O)C(=O)NCC[C@H](C)c1nc(/C=C/C[C@@H]2O[C@]3(C[C@@H](O)[C@@H]2C)O[C@H]([C@H](C[C@H](O)[C@H](C)[C@H](O)[C@H](C)/C=C(C)/C(C)=C/C=C/C(C)=C\C#N)OC)[C@H](OP(=O)(O)O)C3(C)C)co1)N(C)C` [calyculin A]: the “Effect on IKKβ” value in data set [13] is reported as “activate”. In data set [14], the “'Insulin resistance' in isolated tissues and cultured cells” value is recorded as “induce”.

Regarding `C=C1[C@@H](O)[C@@H]2O[C@]3(CC[C@H](/C=C/[C@@H](C)[C@@H]4CC(C)=C[C@@]5(O[C@H](C[C@@](C)(O)C(=O)O)CC[C@H]5O)O4)O3)CC[C@H]2O[C@@H]1[C@@H](O)C[C@H](C)[C@H]1O[C@@]2(CCCCO2)CC[C@H]1C` [Okadaic acid], in data set [13], the “Effect on IKKβ” value is on record as “activate”. Moreover, the “'Insulin resistance' in isolated tissues and cultured cells” value in data set [14] is given as “induce”.

The values are drawn from patent publication US6630312B2, “Method for identifying compounds for treatment of insulin resistance” (Joslin Diabetes Center, Inc., priority 1999, dated 2003).
